Data set [1] in a line: In vivo pharmacokinetics of valsartan in rat plasma, with or without abdominal X-ray irradiation. Also on record: species or system Sprague Dawley (SD) rats. Particulars: for AUC(0-inf) / Cmax / AUC(0-t) / MRT last / Tmax / half-life: male, Sprague-Dawley, rat, plasma, po, 10 mg/kg; for AUC(0-t): read-out: AUC0–24h; for MRT last: read-out: MRT0–24h; for half-life / t1/2: valsartan 10 mg/kg by gavage, Mean ± SD, n = 6. On the procedure: Valsartan was administered by gavage (10 mg/kg) after forming a homogeneous suspension (2 mg/mL) with 1% CMC-Na by grinding and stirring. Before and after administration (0.083, 0.25, 0.5, 1, 2, 4, 6, 8, 12, and 24 h), the rats in group A (n = 6) and group B (n = 6) were anesthetized with isoflurane. Blood samples were collected by the orbital blood sampling method, and whole blood was collected by blood collection tubes coated with heparin sodium. Plasma samples were obtained by centrifugation at 16,260× g for 10 min. Quantitative analysis of LC-MS/MS results was performed using Analyst 1.6.3 program. The pharmacokinetic parameters were calculated using the WinNonlin 8.3 program. SPSS Statistic 20.0 software was used for statistical analysis. One-way ANOVA was used for comparison among multiple groups, and p < 0.05 was considered statistically significant. GraphPad Prism 8.0.2 software was used for generating figures.

Data set [2] can be described thus: VAL bile secretion assay in bile duct cannulated rats. Type of data set: in vivo, Sprague Dawley (SD) rats. Particulars: 10 mg/kg by gavage. An excerpt: For the VAL bile secretion assay, six rats in each group, A and B, underwent bile duct cannulation prior to administration. After anesthesia, the abdominal cavity of the rats was opened, followed by separation and ligation of the distal end of the common bile duct. A small opening was made at the front end of the ligation to insert a catheter, which was then ligated and fixed before suturing the abdominal cavity. Bile was collected through a catheter. The rats were maintained under anesthesia with intraperitoneal injection of normal saline and glucose to ensure stable vital signs. Following surgery, valsartan (10 mg/kg) was administered via gavage, and bile samples were collected at different time points post-administration. The collected bile samples were mixed with 50% methanol–water (ratio 1:9), centrifuged to obtain the supernatant for analysis.

Data set [3] in a line: Ex vivo inverted intestinal sac absorption study. Type of data set: in vitro ADME, Sprague Dawley (SD) rats. Particulars: for concentration of valsartan in the intestinal sac at the final time point: KRB buffer 37 °C containing 10 mM VAL, n = 6. On the procedure: Six rats in groups A and B were anesthetized with isoflurane, followed by the opening of the abdominal cavity to separate a 10 cm segment of the jejunum. The distal end of the jejunal segment was ligated in Krebs–Ringer Solution (KRB), and the resulting intestinal sac was turned inside out from the proximal end to form an inverted intestinal sac. Subsequently, 1 mL of KRB buffer at 37 °C was added to the inverted intestinal sac, which was then equilibrated in oxygen-saturated KRB buffer (37 °C) for 5 min. The flipped intestinal sac was transferred to oxygen-saturated KRB buffer (37 °C) containing 10 mM VAL, initiating the timing process. At different time points, 50 μL of solution from the flipped intestinal sac was aspirated and supplemented with an equal volume (50 μL) of blank KRB buffer.

On the set-up of data set [4]: method as in PMID 28507434. The conditions noted are these: cited from earlier work.
For data set [5] the following is noted: cited from earlier work.
Data set [6] can be described thus: VAL urinary and fecal excretion assay (metabolic cages). The conditions noted are these: rats, 10 mg/kg by gavage.
Method: Male Sprague Dawley (SD) rats (weight 200 ± 20 g) were purchased from Beijing Vital River Laboratory Animal Co., LTD. […] The rats were fed a maintenance diet and had free access to water. All rats were adaptively fed for three days before the experiment and randomly divided into a control group (A) and irradiation group (B). There were 6 rats in group A and B in each study. […] The samples collected were processed and then stored at −80 °C until analysis.
For the VAL urinary and fecal excretion assay, six rats in each group, A and B, were randomly assigned to metabolic cages and administered valsartan (10 mg/kg) via gavage. […] The resulting supernatant was collected as the analytical samples.
The excretion of valsartan was calculated by the concentration and sample volume (or weight), and the fractional excretion of valsartan and the cumulative excretion fraction of valsartan in each time period were obtained through comparison with the corresponding dose administered to the rat.
On the set-up of data set [7]: method as in PMID 28438473, PMID 22204725, PMID 27749456. Particulars: clinical studies; cited from earlier work.
[8] abbreviates: 10 mg/kg by gavage, Control group.
[9] abbreviates: IR-5 Gy vs control, 10 mg/kg by gavage, p < 0.05.
The mark [10] stands for this setting: IR-5 Gy (abdominal X-ray 24 h before).

Read-outs that look alike come from different tables or passages of the source.

As usually defined, the AUC(0-inf) is the area under the concentration-time curve extrapolated to infinity. One may read the Cmax as the highest concentration seen after dosing. In general, half-life refers to the time needed for the level to fall by half in the phase considered. A higher half-life goes with slow decline. One may read the bioavailability as dose-corrected exposure relative to a reference, in per cent. `CCCCC(=O)N(Cc1ccc(-c2ccccc2-c2nnn[nH]2)cc1)[C@H](C(=O)O)C(C)C` [valsartan, Valsartan]: the CL is 20 ± 5.87 mL/min/kg in data set [1] (setting [8]) and 35.33 ± 18.5 mL/min/kg in data set [1] (10 mg/kg by gavage, IR-5 Gy). In addition, the Vd in data set [1] (setting [8]) is 6.254 ± 2.349 L/kg; in data set [1] (10 mg/kg by gavage, IR-5 Gy) it was 14.668 ± 9.456 L/kg. Also, in data set [1] (IR-5 Gy vs control, 10 mg/kg by gavage), the “prolongation of plasma half-life (t1/2) in the IR group” value is recorded as 41%. Besides, in data set [1] (setting [9]), the “decrease of AUC0–24h in the IR group” value amounted to 37%. Also, the “decrease of Cmax in the IR group” value in data set [1] (setting [9]) was 52%. Besides, the AUC(0-inf) in data set [1] (setting [8]) was 8810 ± 2010 ng·h/mL; in data set [1] (10 mg/kg by gavage, IR-5 Gy), 5470 ± 1790 ng·h/mL. The Cmax stood at 4430 ± 1260 ng/mL in data set [1] (setting [8]) and 2130 ± 878 ng/mL in data set [1] (10 mg/kg by gavage, IR-5 Gy). Further, the AUC(0-t) in data set [1] (setting [8]) is 8460 ± 1840 ng·h/mL; in data set [1] (10 mg/kg by gavage, IR-5 Gy), 5270 ± 1830 ng·h/mL. Also, the MRT last was determined as 3.84 ± 0.724 h in data set [1] (setting [8]) and 4.52 ± 1.63 h in data set [1] (10 mg/kg by gavage, IR-5 Gy). Further, the Tmax in data set [1] (10 mg/kg by gavage, Control group, read-out: Tmax) is 0.25 h; in data set [1] (10 mg/kg by gavage, Figure 1, read-out: time of peak plasma concentration) it was about 0.25 h; in data set [1] (10 mg/kg by gavage, IR-5 Gy, read-out: Tmax), 0.222 ± 0.068 h. The figures for the half-life in data set [1] (Control group) and in data set [1] (setting [10]) were 3.57 h and 5.03 h, respectively. For the same compound, the t1/2 is given as 3.568 ± 0.411 h in data set [1] (Control group) and 5.032 ± 2.656 h in data set [1] (setting [10]). Also, the “cumulative fractional bile excretion” value in data set [2] (IR group, 15 h) is reported as 10.83 % of the dose; in data set [2] (IR group, 18 h), 11.52 % of the dose; in data set [2] (IR group, 24 h), 12.67 % of the dose; in data set [2] (control group, 15 h), 22.89 % of the dose; in data set [2] (control group, 18 h), 26.24 % of the dose; in data set [2] (control group, 24 h), 31.26 % of the dose. In addition, the “concentration of valsartan in the intestinal sac at the final time point” value came out at 127 ± 32.94 ng/mL in data set [3] (IR group) and 205.6 ± 51.72 ng/mL in data set [3] (control group). In addition, in data set [3] (final time point), the “reduction of valsartan concentration in the intestinal sac, IR vs control” value is recorded as 38%. Besides, the bioavailability in data set [4] is on record as 23%. Further, the “fraction absorbed into the liver, secreted into the bile and passed into the feces along with unabsorbed valsartan” value in data set [5] is over 80%. The “amount excreted in the urine” value in data set [6] (Figure 2D) is listed as “very small amount”. Moreover, the “cumulative excretion in feces” value in data set [6] (group not stated) is on record as 83%.

As to bevacizumab, the “incidence of hypertension associated with treatment” value in data set [7] is on record as 26% to 55.

The values are drawn from publication PMC11860126, “X-Ray Irradiation Induces Oxidative Stress and Upregulates Intestinal Nrf2-Mrp2 Pathway, Leading to Decreased Intestinal Absorption of Valsartan” (Pharmaceutics, 2025).
